# Legend:
# [1] = biological target: T1, B2 bradykinin receptor (Homo sapiens, UniProt P30411); type: cell membranes, Membrane; settings: chem-1; further: in other assays of this panel Not Active means under 50% inhibition at 10 µM
# T1 sequence (P30411 whole entry): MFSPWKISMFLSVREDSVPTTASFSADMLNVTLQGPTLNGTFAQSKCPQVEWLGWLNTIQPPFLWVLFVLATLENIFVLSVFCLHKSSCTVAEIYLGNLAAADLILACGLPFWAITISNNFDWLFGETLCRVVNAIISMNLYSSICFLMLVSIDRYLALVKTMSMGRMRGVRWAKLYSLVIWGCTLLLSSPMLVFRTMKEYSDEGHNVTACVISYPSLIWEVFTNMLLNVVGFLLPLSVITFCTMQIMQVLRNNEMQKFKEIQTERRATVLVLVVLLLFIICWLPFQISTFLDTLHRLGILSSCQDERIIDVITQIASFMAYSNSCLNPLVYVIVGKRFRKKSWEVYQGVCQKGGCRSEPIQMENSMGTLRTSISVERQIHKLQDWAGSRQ
# [2] = DRUGMATRIX: Calcium Channel Type L, Benzothiazepine radioligand binding (ligand: [3H] Diltiazem); type: cell membranes, Rattus norvegicus, Wistar, Brain, Membrane; settings: Not Active = under 50% inhibition at 10 µM
# [3] = biological target: T2, 5-hydroxytryptamine receptor 2C (Homo sapiens, UniProt P28335); assay: DRUGMATRIX: Serotonin (5-Hydroxytryptamine) 5-HT2C radioligand binding (ligand: [3H] Mesulergine); type: cell membranes, CHO-K1, Membrane; settings: Not Active = under 50% inhibition at 10 µM
# T2 sequence (P28335 whole entry): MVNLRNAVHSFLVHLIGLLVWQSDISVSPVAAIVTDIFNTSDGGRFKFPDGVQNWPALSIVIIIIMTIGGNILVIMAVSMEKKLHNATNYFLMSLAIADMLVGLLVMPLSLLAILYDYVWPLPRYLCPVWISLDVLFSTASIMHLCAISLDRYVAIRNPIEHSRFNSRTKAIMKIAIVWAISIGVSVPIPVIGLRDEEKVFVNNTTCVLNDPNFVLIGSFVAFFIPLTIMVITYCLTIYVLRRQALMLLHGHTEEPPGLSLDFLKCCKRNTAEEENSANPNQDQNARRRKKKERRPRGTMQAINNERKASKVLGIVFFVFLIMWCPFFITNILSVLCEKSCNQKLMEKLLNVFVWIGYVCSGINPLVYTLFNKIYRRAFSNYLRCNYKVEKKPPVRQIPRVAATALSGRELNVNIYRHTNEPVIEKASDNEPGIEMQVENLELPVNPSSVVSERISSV
# [4] = biological target: Prostaglandin G/H synthase 1 (Homo sapiens, UniProt P23219); assay: biochemical; type: tissue-based, Platelet;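 further: inhibition of COX-1 enzyme activity, with arachidonic acid supplied as substrate; in other assays of this panel Not Active means under 50% inhibition at 10 µM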
# [5] = biological target: T3, Leukotriene C4 synthase (Cavia porcellus, UniProt A6XA80); assay: biochemical; type: tissue-based, Lung;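 further: enzyme inhibition assay of leukotriene C4 synthase, using LTA4 as the substrate; in other assays of this panel Not Active means under 50% inhibition at 10 µM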
# T3 sequence (A6XA80 whole entry): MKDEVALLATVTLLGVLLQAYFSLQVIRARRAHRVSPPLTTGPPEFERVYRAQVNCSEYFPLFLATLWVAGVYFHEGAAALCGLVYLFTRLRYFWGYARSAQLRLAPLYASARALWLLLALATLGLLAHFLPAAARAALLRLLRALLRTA
# [6] = biological target: Cytochrome P450 2D6 (Homo sapiens, UniProt P10635); settings: bti-tn-5b1-4; further: in other assays of this panel Not Active means under 50% inhibition at 10 µM
# Cytochrome P450 2D6, sequence (P10635 whole entry): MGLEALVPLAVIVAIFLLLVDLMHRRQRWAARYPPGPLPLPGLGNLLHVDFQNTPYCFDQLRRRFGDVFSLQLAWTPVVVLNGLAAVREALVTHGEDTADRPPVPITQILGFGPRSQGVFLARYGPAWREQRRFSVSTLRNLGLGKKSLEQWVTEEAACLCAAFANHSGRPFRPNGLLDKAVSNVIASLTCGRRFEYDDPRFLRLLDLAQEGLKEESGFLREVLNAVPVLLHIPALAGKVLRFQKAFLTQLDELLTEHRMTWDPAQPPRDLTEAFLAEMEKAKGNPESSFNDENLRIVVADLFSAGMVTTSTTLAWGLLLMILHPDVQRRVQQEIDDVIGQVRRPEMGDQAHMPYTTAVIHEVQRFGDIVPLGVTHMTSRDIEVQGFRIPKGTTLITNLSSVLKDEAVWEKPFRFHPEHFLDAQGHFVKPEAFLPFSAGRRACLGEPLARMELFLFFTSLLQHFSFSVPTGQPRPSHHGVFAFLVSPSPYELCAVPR
# Prostaglandin G/H synthase 1, sequence (P23219 whole entry): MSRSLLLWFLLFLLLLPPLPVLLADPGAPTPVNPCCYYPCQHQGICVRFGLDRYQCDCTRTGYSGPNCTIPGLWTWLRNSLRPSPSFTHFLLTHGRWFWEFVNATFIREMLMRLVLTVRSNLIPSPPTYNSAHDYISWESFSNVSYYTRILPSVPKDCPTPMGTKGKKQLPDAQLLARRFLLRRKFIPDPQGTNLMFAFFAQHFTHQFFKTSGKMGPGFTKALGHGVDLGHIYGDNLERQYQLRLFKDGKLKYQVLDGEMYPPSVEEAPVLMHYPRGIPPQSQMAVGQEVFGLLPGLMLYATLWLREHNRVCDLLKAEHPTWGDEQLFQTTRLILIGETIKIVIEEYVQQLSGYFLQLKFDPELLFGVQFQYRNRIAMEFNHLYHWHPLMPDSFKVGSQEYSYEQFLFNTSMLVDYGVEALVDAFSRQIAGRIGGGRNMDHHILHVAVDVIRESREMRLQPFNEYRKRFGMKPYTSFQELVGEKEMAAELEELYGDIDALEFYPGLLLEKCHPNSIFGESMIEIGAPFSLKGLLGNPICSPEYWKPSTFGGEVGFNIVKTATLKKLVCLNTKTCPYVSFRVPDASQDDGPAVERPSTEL
Compound,IC50 [1],IC50 [2],Ki [2],IC50 ([3]; cho-k1),IC50 ([4]; platelet),IC50 [5],IC50 [6],Ki [6],IC50 ([3]; read-out: IC50) [nM],Ki ([3]; read-out: Ki) [nM],IC50 ([4]; read-out: IC50) [nM],IC50 ([2]; read-out: IC50) [nM],Ki ([2]; read-out: Ki) [nM],Ki [1],Ki ([3]; cho-k1),Ki ([4]; platelet),Ki [5]
O=C1CN(/N=C/c2ccc([N+](=O)[O-])o2)C(=O)N1 [NITROFURANTOIN],Not Active,Not Active,Not Active,Not Active,Not Active,Not Active,Not Active,Not Active,–,–,–,–,–,–,–,–,–
c1ccc2c(c1)Nc1ccccc1S2 [PHENOTHIAZINE],Not Active,Not Active,Not Active,–,–,Not Active,Not Active,Not Active,2240,1170,196,–,–,–,–,–,–
CC(CN1c2ccccc2Sc2ccccc21)N(C)C (stereo not drawn) [PROMETHAZINE],Not Active,–,–,–,Not Active,Not Active,Not Active,Not Active,12,6.48,–,2780,2470,–,–,–,–
CC(C)Cn1cnc2c(N)nc3ccccc3c21 [IMIQUIMOD],Not Active,Not Active,Not Active,Not Active,Not Active,Not Active,Not Active,Not Active,–,–,–,–,–,–,–,–,–
OC[C@H]1OC2C3[C@@H](CO)OC(O[C@H]4[C@H](O)[C@@H](O)[C@@H](O[C@H]5[C@H](O)[C@@H](O)[C@@H](O[C@H]6[C@H](O)[C@@H](O)[C@@H](O[C@H]7[C@H](O)[C@@H](O)[C@@H](O[C@H]8[C@H](O)[C@@H](O)[C@@H](O[C@H]9[C@H](O)[C@@H](O)C(OC1[C@H](O)[C@H]2O)O[C@@H]9CO)O[C@@H]8CO)O[C@@H]7CO)O[C@@H]6CO)O[C@@H]5CO)O[C@@H]4CO)[C@H](O)[C@H]3O,Not Active,Not Active,Not Active,Not Active,Not Active,Not Active,Not Active,Not Active,–,–,–,–,–,–,–,–,–
COc1cc(/C=C/C(=O)O)ccc1O [FERULATE],Not Active,Not Active,Not Active,Not Active,Not Active,Not Active,Not Active,Not Active,–,–,–,–,–,–,–,–,–
CCN1C[C@]2(COC)[C@H](O)C[C@H](OC)[C@@]34[C@@H]5C[C@@]6(O)[C@H](OC(=O)c7ccccc7)[C@@H]5[C@@](OC(C)=O)([C@@H]([C@H](OC)[C@H]23)[C@@H]14)[C@@H](O)[C@@H]6OC [ACONITINE],Not Active,Not Active,Not Active,Not Active,Not Active,Not Active,Not Active,Not Active,–,–,–,–,–,–,–,–,–
CO[C@H]1O[C@@H]2O[C@@]3(C)CC[C@H]4[C@H](C)CC[C@@H]([C@H]1C)[C@@]24OO3,Not Active,Not Active,Not Active,Not Active,Not Active,Not Active,Not Active,Not Active,–,–,–,–,–,–,–,–,–
C[C@@H]1[C@H](O)[C@@H](C)/C=C/C=C/C=C/C=C/C=C/C=C/C=C/[C@H](O[C@@H]2O[C@H](C)[C@@H](O)[C@H](N)[C@@H]2O)C[C@@H]2O[C@](O)(C[C@@H](O)C[C@@H](O)[C@H](O)CC[C@@H](O)C[C@@H](O)CC(=O)O[C@H]1C)C[C@H](O)[C@H]2C(=O)O [AMPHOTERICIN B],Not Active,Not Active,Not Active,Not Active,Not Active,Not Active,Not Active,Not Active,–,–,–,–,–,–,–,–,–
Oc1ncnc2[nH]ncc12 [ALLOPURINOL],Not Active,Not Active,Not Active,Not Active,Not Active,Not Active,Not Active,Not Active,–,–,–,–,–,–,–,–,–
COc1cc([C@@H]2c3cc4c(cc3[C@H](O)[C@H]3COC(=O)[C@H]23)OCO4)cc(OC)c1OC [PODOFILOX],Not Active,Not Active,Not Active,Not Active,Not Active,Not Active,Not Active,Not Active,–,–,–,–,–,–,–,–,–
NC(=O)CN1CCCC1=O,Not Active,Not Active,Not Active,Not Active,Not Active,Not Active,Not Active,Not Active,–,–,–,–,–,–,–,–,–
POVIDONE,Not Active,Not Active,Not Active,Not Active,Not Active,Not Active,Not Active,Not Active,–,–,–,–,–,Not Active,Not Active,Not Active,Not Active
Cc1c(N)nc([C@H](CC(N)=O)NC[C@H](N)C(N)=O)nc1C(=O)N[C@H](C(=O)N[C@H](C)[C@@H](O)[C@H](C)C(=O)N[C@H](C(=O)NCCc1nc(-c2nc(C(=O)NCCC[S+](C)C)cs2)cs1)[C@@H](C)O)[C@@H](O[C@@H]1O[C@@H](CO)[C@@H](O)[C@H](O)[C@@H]1O[C@H]1O[C@H](CO)[C@@H](O)[C@H](OC(N)=O)[C@@H]1O)c1c[nH]cn1.[Br-] [BLEOMYCIN A2],Not Active,Not Active,Not Active,Not Active,Not Active,Not Active,Not Active,Not Active,–,–,–,–,–,–,–,–,–
Nc1ccc(Cc2ccc(N)cc2)cc1,Not Active,Not Active,Not Active,Not Active,Not Active,Not Active,Not Active,Not Active,–,–,–,–,–,–,–,–,–
C[C@]12CC[C@@H](O)C[C@@H]1CC[C@@H]1[C@@H]2CC[C@]2(C)C(=O)CC[C@@H]12 [ANDROSTERONE],Not Active,Not Active,Not Active,Not Active,Not Active,Not Active,Not Active,Not Active,–,–,–,–,–,–,–,–,–
O=C(O)c1ccccc1 [BENZOIC ACID],Not Active,Not Active,Not Active,Not Active,Not Active,Not Active,Not Active,Not Active,–,–,–,–,–,–,–,–,–
CC(=O)Nc1ccc2c(c1)Cc1ccccc1-2 [2-ACETYLAMINOFLUORENE],Not Active,Not Active,Not Active,–,Not Active,Not Active,Not Active,Not Active,2140,1120,–,–,–,–,–,–,–
C[C@H](C(=O)O)c1ccc2oc(-c3ccc(F)cc3)nc2c1 [FLUNOXAPROFEN],Not Active,Not Active,Not Active,Not Active,Not Active,Not Active,Not Active,Not Active,–,–,–,–,–,–,–,–,–
CN(CCOc1ccc(C[C@H](Nc2ccccc2C(=O)c2ccccc2)C(=O)O)cc1)c1ccccn1,Not Active,Not Active,Not Active,Not Active,Not Active,Not Active,Not Active,Not Active,–,–,–,–,–,–,–,–,–
CCN1CCN(c2cc3c(cc2F)c(=O)c(C(=O)O)cn3C2CC2)CC1 [ENROFLOXACIN],Not Active,Not Active,Not Active,Not Active,Not Active,Not Active,Not Active,Not Active,–,–,–,–,–,–,–,–,–
C[N+](C)(C)CCOP(=O)([O-])OC[C@H](O)CO,Not Active,Not Active,Not Active,Not Active,Not Active,Not Active,Not Active,Not Active,–,–,–,–,–,–,–,–,–

# From ChEMBL document CHEMBL1909046, “DrugMatrix in vitro pharmacology data”
